{"source": "patent US20190362816A1", "about": "“Systems and Methods for Developing Covalent Inhibitor Libraries for Screening Using Virtual Docking and Experimental Approaches” (Northwestern University, priority 2016, published 2019)", "key": {"cysteine protease papain [1]": {"biological_target": "T1, cysteine protease papain (Carica papaya, UniProt P00784)", "T1 sequence (P00784 134-345)": "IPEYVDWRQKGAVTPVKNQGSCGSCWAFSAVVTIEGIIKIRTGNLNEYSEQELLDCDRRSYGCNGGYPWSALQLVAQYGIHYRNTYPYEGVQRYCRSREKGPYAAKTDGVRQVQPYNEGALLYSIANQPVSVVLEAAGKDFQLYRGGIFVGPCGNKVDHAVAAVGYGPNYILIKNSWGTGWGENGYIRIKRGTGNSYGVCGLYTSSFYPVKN", "conditions": "J Med Chem. 2014, 57(11), 4969-74; cited from earlier work"}, "cysteine protease papain [2]": {"biological_target": "T1, cysteine protease papain", "experiment": "enzyme assay against cysteine protease papain (kinact/Ki)", "assay_type": "biochemical", "conditions": "covalent fragments of this work; J Med Chem. 2014, 57(11), 4969-74; read-out: Inhibitors of papain in this work, kinact/Ki", "text": "In a further embodiment, once the potential covalent inhibitor candidate libraries have been prepared, these candidates can be evaluated by dosing them in a specific assay at a specific concentration versus the receptor to determine the potency of each of the candidates. Depending on the covalent inhibitor, the receptor, and the therapeutic area, the assays will vary. Methods of performing wet chemistry assays are well known. Examples of covalent fragments evaluated in the enzyme assays against cysteine protease papain is shown below (J Med Chem. 2014 Jun. 12; 57(11):4969-74): […]"}, "[3]": {"biological_target": "cysteine protease cathepsin L (Homo sapiens, UniProt P07711)", "sequence (P07711 114-333)": "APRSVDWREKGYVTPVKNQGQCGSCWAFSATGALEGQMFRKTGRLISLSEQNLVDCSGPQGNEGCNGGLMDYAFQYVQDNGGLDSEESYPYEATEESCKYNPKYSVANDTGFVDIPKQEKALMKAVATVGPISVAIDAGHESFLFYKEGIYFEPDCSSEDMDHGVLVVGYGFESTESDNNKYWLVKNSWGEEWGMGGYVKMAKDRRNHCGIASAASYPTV", "experiment": "cathepsin L assay using commercially available fluorescent substrates", "assay_type": "biochemical", "text": "Experimental validation of identified inhibitors of cysteine protease cathepsin L. Identified covalent inhibitors (including 53) had been synthesized and tested in cathepsin L assays using commercially available fluorescent substrates for cathepsins (Calbiochem)."}, "[4]": {"biological_target": "Cathepsin B cysteine protease (Homo sapiens, UniProt P07858)", "experiment": "inhibition of related Cathepsin B cysteine protease", "assay_type": "biochemical", "conditions": "selectivity versus cathepsin L"}}, "data": [{"smiles": "COC(=O)/C=C/CNC(=O)[C@@H](CNC(C)=O)CC(C)C", "values": [{"measurement": "Known inhibitors of papain, kinact/Ki", "setting": "cysteine protease papain [1]", "result": 1.102, "unit": "M⁻¹ s⁻¹"}]}, {"smiles": "COC(=O)/C=C/CNC(=O)C1CCN(C(=O)CC(C)C)CC1", "values": [{"measurement": "kinact/KI", "setting": "cysteine protease papain [2]", "result": 0.461, "unit": "M⁻¹ s⁻¹"}]}, {"smiles": "COC(=O)/C=C/CNC(=O)c1ccc(C2CCCO2)s1", "note": "(stereo not shown)", "values": [{"measurement": "kinact/KI", "setting": "cysteine protease papain [2]", "result": 0.037, "unit": "M⁻¹ s⁻¹"}]}, {"smiles": "COC(=O)/C=C/CNC(=O)[C@@H](CNC(C)=O)Cc1ccccc1", "values": [{"measurement": "Known inhibitors of papain, kinact/Ki", "setting": "cysteine protease papain [1]", "result": 6.575, "unit": "M⁻¹ s⁻¹"}]}, {"smiles": "CC(Oc1ccc(Br)cc1Br)C(=O)NC/C=C/S(C)(=O)=O", "note": "(racemic) [Compound 53]", "values": [{"measurement": "kinact/KI", "setting": "[3]; detailed kinetic analysis", "result": 4.1, "unit": "M⁻¹ s⁻¹"}, {"measurement": "Ki", "setting": "[3]; fluorescent substrates (Calbiochem)", "result": "134 ± 2", "unit": "µM"}, {"measurement": "inhibition of Cathepsin B", "setting": "[4]", "result": "does not inhibit"}]}, {"smiles": "COC(=O)/C=C/CNC(=O)c1cc(-c2ccc(C)cc2)on1", "values": [{"measurement": "kinact/KI", "setting": "cysteine protease papain [2]", "result": 1.23, "unit": "M⁻¹ s⁻¹"}]}, {"smiles": "COC(=O)/C=C/CNC(=O)[C@H](CNC(C)=O)Cc1ccccc1", "values": [{"measurement": "Known inhibitors of papain, kinact/Ki", "setting": "cysteine protease papain [1]", "result": 0.386, "unit": "M⁻¹ s⁻¹"}]}, {"smiles": "COC(=O)/C=C/CNC(=O)c1sc(-c2ccccc2F)nc1C", "values": [{"measurement": "kinact/KI", "setting": "cysteine protease papain [2]", "result": 0.409, "unit": "M⁻¹ s⁻¹"}]}]}
